This note sets out measurements from US6525090B1, “Methods of treating mental diseases, inflammation and pain” (Neurosciences Research Foundation, Inc., priority 1996, dated 2003).

The test system of experiment [1] is uptake of radiolabeled anandamide. Put plainly: Uptake and intracellular level of radiolabeled anandamide in cortical astrocyte cultures. The experiment is classed as cell-based. The conditions noted are these: rat cortical astrocyte cultures.
Experiment [2] has as its target T1, anandamide amidohydrolase of intact astrocytes (Rattus norvegicus, UniProt P97612).
T1 construct: endogenous in cells; host or cells: primary rat cortical astrocytes, 3 weeks in culture
T1 sequence (P97612 1-579): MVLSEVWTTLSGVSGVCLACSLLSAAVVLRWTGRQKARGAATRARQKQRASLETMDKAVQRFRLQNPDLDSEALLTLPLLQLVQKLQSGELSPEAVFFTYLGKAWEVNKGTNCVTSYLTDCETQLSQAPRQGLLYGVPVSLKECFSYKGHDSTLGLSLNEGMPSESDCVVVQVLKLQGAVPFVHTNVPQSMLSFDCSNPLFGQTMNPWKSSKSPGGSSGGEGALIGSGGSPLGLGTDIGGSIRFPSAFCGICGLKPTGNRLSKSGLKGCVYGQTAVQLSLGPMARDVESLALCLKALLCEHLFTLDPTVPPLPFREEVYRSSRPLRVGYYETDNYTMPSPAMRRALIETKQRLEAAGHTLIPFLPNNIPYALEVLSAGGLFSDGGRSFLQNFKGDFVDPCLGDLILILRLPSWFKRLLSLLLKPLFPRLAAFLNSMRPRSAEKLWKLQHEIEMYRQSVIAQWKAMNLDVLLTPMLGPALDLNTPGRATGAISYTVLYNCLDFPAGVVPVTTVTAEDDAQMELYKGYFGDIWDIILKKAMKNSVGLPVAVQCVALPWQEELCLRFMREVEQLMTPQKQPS
In words: Assay in cultures of cortical astrocytes (anandamide amidohydrolase of intact cells). In kind it is cell-based. The conditions noted are these: rat cortical astrocyte cultures, 20 min incubation, 37° C., radiolabeled arachidonic acid or phospholipids measured; read-out: IC50, inhibition of anandamide amidohydrolase of intact astrocytes. As for the experimental part: Cultures of rat cortical astrocytes, essentially free of neurons, were prepared following the standard procedures described in Cadas et al., J. Neurosci. 16, 3934-3942 (1996), and used after 3 weeks in culture. […] The organic phases were dried, and analyzed as follows. To measure radiolabeled anandamide and arachidonic acid, the organic extracts were fractionated by silica gel G column chromatography, as described in Fontana et al., Prostaglandins Leukotrienes Essential Fatty Acids 53, 301-308 (1995). Radiolabeled anandamide and arachidonic acid were eluted from the column with a solvent system of chloroform/methanol (9:1, vol/vol), and further purified by thin-layer chromatography (solvent system of chloroform/methanol/ammonia, 80:20:1, vol/vol/vol). To measure radiolabeled phospholipids, which were formed in intact cells from the enzymatic esterification of radiolabeled arachidonic acid, the organic extracts were fractionated by thin-layer chromatography (solvent system of chloroform/methanol/ammonia/water, 65:25:4:1, vol/vol/vol/vol).

Experiment [3] has as its target rat brain anandamide amidohydrolase (Rattus norvegicus, UniProt P97612). In words: biochemical.
Method: Anandamide amidohydrolase was measured in rat brain or rat liver microsome fractions. The fractions (0.1 mg of protein) were prepared following the protocols of Desarnaud et al., J. Biol. Chem. 270, 6030-6035 (1995), and were incubated in 50 mM Tris-Cl (pH 7.4) at 37° C., in the presence of radiolabeled anandamide obtained from New England Nuclear, Wilmington, Del., 221 Ci/mmol), plus various concentrations of test inhibitor (0.1-100 μM). After 10 min. of incubation, the reactions were stopped with cold methanol, the radiolabeled lipids extracted with chloroform, and the organic phases brought to dryness under a stream of N2 gas. The radioactive products were then fractionated by thin-layer chromatography (solvent system: chloroform/methanol/ammonia, 90:10:1 vol/vol/vol), collected by scraping appropriate areas of the chromatography plate, and quantified by liquid scintillation counting.
For experiment [4], the target named is T2, rat liver anandamide amidohydrolase (Rattus norvegicus, UniProt P97612).
T2 construct: Anandamide amidohydrolase was measured in rat brain or rat liver microsome fractions; from tissue; host or cells: rat liver microsome fractions
T2 sequence (P97612 1-579): T1 sequence (P97612 1-579)
In words: Anandamide amidohydrolase assay, rat liver microsome fractions. In kind it is biochemical.
Method: Anandamide amidohydrolase was measured in rat brain or rat liver microsome fractions. […] After 10 min. of incubation, the reactions were stopped with cold methanol, the radiolabeled lipids extracted with chloroform, and the organic phases brought to dryness under a stream of N2 gas. The radioactive products were then fractionated by thin-layer chromatography (solvent system: chloroform/methanol/ammonia, 90:10:1 vol/vol/vol), collected by scraping appropriate areas of the chromatography plate, and quantified by liquid scintillation counting.

A word on the IC50: it is the concentration at which inhibition is half-maximal. Regarding `O=C1O/C(=C/Br)CCC1c1cccc2ccccc12` (stereo not drawn) [E-6-(bromomethylene)tetrahydro-3-(1-naphthalenyl)-2H-pyrane-2-one], the “inhibition of uptake of radiolabeled anandamide” value in experiment [1] was “does not inhibit”. Besides, in experiment [1] (in the presence of the compound), the “intracellular levels of radiolabeled anandamide” value is given as “greatly increased”. The concentration for half-maximal inhibition (IC50) was determined as 500 nM in experiment [2]; 700 nM in experiment [3]; 97 µM in experiment [4] (rat liver microsome fractions, 10 min incubation, 37° C., pH 7.4, radiolabeled anandamide, read-out: IC50, inhibition of the liver enzyme). Moreover, in experiment [4] (liver versus brain anandamide amidohydrolase), the “inhibitory concentrations for liver enzyme relative to brain” value was “more than 100 fold”.
